Results on 13 molecules are retold here after patent publication US11951094B2, “TLR2 modulator compounds, pharmaceutical compositions and uses thereof” (Axial Therapeutics, Inc., priority 2020, dated 2024).

Holding throughout (type): cell-based
Assay [1] deals with T1, TLR2 (Homo sapiens, UniProt O60603). The experiment in a line: TLR2 agonist screening assay, HEK-Blue TLR2 reporter cell line (NF-kB-driven SEAP, absorbance at 600 nm). Set-up: host or cells: HEK-293 (HEK-Blue TLR2 reporter cell line). To be noted: HEK-Blue TLR2 reporter cells, agonist mode. The procedure, abridged: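 Read-out: SEAP colour change, A600, after overnight agonist exposure. Cells: HEK-293 overexpressing TLR2, NF-kB-SEAP reporter, ~40,000/well, plated 16-24 h prior.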
T1 sequence (O60603 21-784): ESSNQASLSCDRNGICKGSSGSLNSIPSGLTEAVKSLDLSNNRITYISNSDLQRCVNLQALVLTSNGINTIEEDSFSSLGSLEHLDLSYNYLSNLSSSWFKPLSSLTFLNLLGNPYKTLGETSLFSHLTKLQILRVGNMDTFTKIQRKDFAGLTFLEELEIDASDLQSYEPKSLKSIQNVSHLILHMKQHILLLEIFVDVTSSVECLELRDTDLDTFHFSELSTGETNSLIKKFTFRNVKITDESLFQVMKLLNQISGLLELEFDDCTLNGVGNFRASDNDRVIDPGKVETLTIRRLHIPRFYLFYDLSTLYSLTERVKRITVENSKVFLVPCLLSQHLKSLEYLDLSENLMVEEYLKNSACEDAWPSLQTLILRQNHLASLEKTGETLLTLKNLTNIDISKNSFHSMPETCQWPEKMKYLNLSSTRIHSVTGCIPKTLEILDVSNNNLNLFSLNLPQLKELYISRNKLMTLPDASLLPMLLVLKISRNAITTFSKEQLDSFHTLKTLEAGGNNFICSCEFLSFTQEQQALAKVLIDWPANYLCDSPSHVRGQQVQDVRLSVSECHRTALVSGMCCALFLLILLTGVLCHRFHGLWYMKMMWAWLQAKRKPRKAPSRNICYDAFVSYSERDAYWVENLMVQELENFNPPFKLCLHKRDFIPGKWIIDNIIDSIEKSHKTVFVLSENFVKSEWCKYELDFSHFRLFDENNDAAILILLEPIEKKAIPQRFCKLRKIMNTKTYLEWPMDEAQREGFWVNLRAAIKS

Assay [2] concerns the target T1, TLR2. The assay can be described thus: TLR2 in vitro functional assay, cytokine release from human monocytic cell line THP-1. Conditions: THP-1 human monocytic cell line, average of all runs. Here is the method: (§1) Cells of the immune system respond to TLR agonists in part by secreting cytokines. Functional assays for TLR2 agonists measure cytokine release from purified immune cells or immortalized cell lines derived from immune cells. Cytokine release is measured by standard ELISA approaches or multiplexed analysis using the Meso Scale Discovery (MSD) platform.
Following assay measurements utilizing either HEK-Blue detection or cytokine release, all data is analyzed with the GraphPad Prism8 statistical package to determine EC50, binding and activity metrics for the TLR2 modulators. […]
(§2) Numerous cell lines derived from various cell types can respond to TLR2 agonists with stereotyped cytokine and chemokine secretion. In particular, cell lines derived from macrophages respond robustly to TLR2 agonists by secreting a wide array of cytokines, including (but not limited to) TNF-alpha, IL-1, IL-10 and IL-12. The human monocytic cell line THP-1, the mouse macrophage line RAW-264.7, and the rat macrophage line NR8383 were used. For each assay, the respective cell lines were plated into 96-well plates overnight and then treated the following day with various TLR2-engaging compounds at varying concentrations. The next day, supernatants were collected and assayed by multiplex immunodetection for cytokines released (MSD detection kits for respective species).
(§3) Data provided in Table 5 is generated using protocols described in Example 45 and 46.

For assay [3], the target named is T2, TLR2 (Mus musculus, UniProt Q9QUN7).
T2 construct: endogenous in cells; host or cells: RAW 264.7
T2 sequence (Q9QUN7 25-784): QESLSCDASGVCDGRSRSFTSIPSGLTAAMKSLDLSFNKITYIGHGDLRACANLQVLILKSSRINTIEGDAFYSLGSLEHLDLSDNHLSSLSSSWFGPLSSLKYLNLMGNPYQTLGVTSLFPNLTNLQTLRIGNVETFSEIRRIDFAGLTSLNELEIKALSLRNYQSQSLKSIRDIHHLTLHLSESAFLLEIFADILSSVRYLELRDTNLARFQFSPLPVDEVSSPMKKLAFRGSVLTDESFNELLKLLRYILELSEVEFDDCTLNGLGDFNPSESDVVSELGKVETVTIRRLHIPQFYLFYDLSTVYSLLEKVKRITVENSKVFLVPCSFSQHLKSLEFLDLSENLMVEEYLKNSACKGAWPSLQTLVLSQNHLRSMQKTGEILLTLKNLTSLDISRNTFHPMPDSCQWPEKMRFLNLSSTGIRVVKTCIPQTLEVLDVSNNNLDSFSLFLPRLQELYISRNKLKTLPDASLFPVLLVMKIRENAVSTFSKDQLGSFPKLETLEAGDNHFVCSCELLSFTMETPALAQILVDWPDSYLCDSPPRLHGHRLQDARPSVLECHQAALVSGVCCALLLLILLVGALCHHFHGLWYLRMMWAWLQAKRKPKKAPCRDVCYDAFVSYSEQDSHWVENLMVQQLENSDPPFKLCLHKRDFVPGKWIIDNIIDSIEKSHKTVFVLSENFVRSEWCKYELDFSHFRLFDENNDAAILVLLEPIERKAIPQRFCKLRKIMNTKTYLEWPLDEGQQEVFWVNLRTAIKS
The experiment in a line: TLR2 functional assay, cytokine release from RAW 264.7 mouse macrophage cell line. Conditions: average of all runs. Here is the method: as §1
Purified primary human peripheral blood mononuclear cells or RAW 264.7 mouse macrophage cell line cells are plated at approximately 40,000 cells per well. Cells are treated with agonist compounds and assays 6-24 hours post-treatment for cytokines released into the cell culture media.
Following assay measurements utilizing either HEK-Blue detection or cytokine release, all data is analyzed with the GraphPad Prism8 statistical package to determine EC50, binding and activity metrics for the TLR2 modulators.
as §2, §3

Regarding `CCCCCCCCCCCCCCNC(=O)C1CN(C(=O)c2ccc(C(=O)N3C[C@@H](C(=O)N[C@H]4C[C@@H]4c4ccccc4)[C@H](C(=O)N[C@H]4C[C@@H]4c4ccccc4)C3)cc2)CCN1` (mixture of isomers) [Compound 054, (3S,4S)—N3,N4-bis ((1S,2R)-2-phenylcyclopropyl)-1-(4-(3-(tetradecylcarbamoyl)piperazine-1-carbonyl)benzoyl) pyrrolidine-3,4-dicarboxamide], the EC50 (in general, the concentration giving half of the maximal effect) on TLR2 [1] (average of all runs (Table 3)) is 0.051 to 0.35 µM; on TLR2 [2], 0.0001 to 0.05 µM.

`CCCCCCCCCCCCCCNC(=O)[C@@H]1CN(C(=O)c2ccc(C(=O)N3C[C@@H](C(=O)N[C@H]4C[C@@H]4c4ccccc4)[C@H](C(=O)N[C@H]4C[C@@H]4c4ccccc4)C3)cc2)C[C@H]1OC` (relative stereo) [Compound 060, (3S,4S)-1-(4-((3S*,4R*)-3-methoxy-4-(tetradecylcarbamoyl)pyrrolidine-1-carbonyl)benzoyl)-N3,N4-bis((1S,2R)-2-phenylcyclopropyl)pyrrolidine-3,4-dicarboxamide]: the EC50 on TLR2 [1] (average of all runs (Table 3)) and on TLR2 [2] was 0.0001 to 0.05 µM throughout.

In the case of `CCCCCCCNC(=O)[C@@H]1CN(C(=O)c2ccc(C(=O)N3C[C@@H](C(=O)N[C@H]4C[C@@H]4c4ccccc4)[C@H](C(=O)N[C@H]4C[C@@H]4c4ccccc4)C3)cc2)C[C@@H]1OCCCCCCC` (relative stereo) [Compound 063, (3S,4S)-1-(4-((3R*,4R*)-3-(heptylcarbamoyl)-4-(heptyloxy)pyrrolidine-1-carbonyl)benzoyl)-N3,N4-bis((1S,2R)-2-phenylcyclopropyl)pyrrolidine-3,4-dicarboxamide], the EC50 lay within 0.351 to 1 µM at TLR2 [1] (average of all runs (Table 3)) and 0.0001 to 0.05 µM at TLR2 [2].

Regarding `CCCCCCCCCCCCCCNC(=O)[C@H]1CN(C(=O)c2ccc(C(=O)N3C[C@@H](C(=O)N[C@H]4C[C@@H]4c4ccccc4)[C@H](C(=O)N[C@H]4C[C@@H]4c4ccccc4)C3)cc2)C[C@H]1O` (relative stereo) [Compound 104, (3S,4S)-1-(4-((3S*,4S*)-3-hydroxy-4-(tetradecylcarbamoyl)pyrrolidine-1-carbonyl)benzoyl)-N3,N4-bis((1S,2R)-2-phenylcyclopropyl)pyrrolidine-3,4-dicarboxamide], the EC50 at TLR2 [1] (average of all runs (Table 4)) and on TLR2 [2] was 0.0001 to 0.05 µM throughout.

Turning to `CCCCCCCC(=O)N[C@@H](Cn1cc(-c2ccc(C(=O)N3C[C@@H](C(=O)N[C@H]4C[C@@H]4c4ccccc4)[C@H](C(=O)N[C@H]4C[C@@H]4c4ccccc4)C3)cc2)nn1)C(=O)NCCCCCC` [Compound 219, (3S,4S)-1-(4-(1-((S)-3-(hexylamino)-2-octanamido-3-oxopropyl)-1H-1,2,3-triazol-4-yl)benzoyl)-N3,N4-bis((1S,2R)-2-phenylcyclopropyl)pyrrolidine-3,4-dicarboxamide], the EC50 on TLR2 [1] (average of all runs (Table 4)) and on TLR2 [3] was 0.0001 to 0.05 µM throughout.

For `CCCCCCCNC(=O)N[C@@H](Cn1cc(-c2ccc(C(=O)N3C[C@@H](C(=O)N[C@H]4C[C@@H]4c4ccccc4)[C@H](C(=O)N[C@H]4C[C@@H]4c4ccccc4)C3)cc2)nn1)C(=O)NCCCCCC` [Compound 220, (3S,4S)-1-(4-(1-((S)-2-(3-heptylureido)-3-(hexylamino)-3-oxopropyl)-1H-1,2,3-triazol-4-yl)benzoyl)-N3,N4-bis((1S,2R)-2-phenylcyclopropyl)pyrrolidine-3,4-dicarboxamide], the EC50 at TLR2 [1] (average of all runs (Table 4)) and on TLR2 [3] was 0.0001 to 0.05 µM throughout.

Regarding `CCCCCCCCNC(=O)N[C@@H](Cn1cc(-c2ccc(C(=O)N3C[C@@H](C(=O)N[C@H]4C[C@@H]4c4ccccc4)[C@H](C(=O)N[C@H]4C[C@@H]4c4ccccc4)C3)cc2)nn1)C(=O)NCCCCCC` [Compound 221, (3S,4S)-1-(4-(1-((S)-3-(hexylamino)-2-(3-octylureido)-3-oxopropyl)-1H-1,2,3-triazol-4-yl)benzoyl)-N3,N4-bis((1S,2R)-2-phenylcyclopropyl)pyrrolidine-3,4-dicarboxamide], the EC50 on TLR2 [1] (average of all runs (Table 4)) and at TLR2 [3] was 0.0001 to 0.05 µM each time.

Turning to `CCCCCCNC(=O)[C@H](CNC(=O)c1ccc(C(=O)N2C[C@@H](C(=O)N[C@H]3C[C@@H]3c3ccccc3)[C@H](C(=O)N[C@H]3C[C@@H]3c3ccccc3)C2)cc1)NC(=O)N[C@H]1C[C@@H]1c1ccccc1` [Compound 222, (3S,4S)-1-(4-(((S)-3-(hexylamino)-3-oxo-2-(3-((1S,2R)-2-phenylcyclopropyl)ureido)propyl)carbamoyl)benzoyl)-N3,N4-bis((1S,2R)-2-phenylcyclopropyl)pyrrolidine-3,4-dicarboxamide], the figures for the EC50 at TLR2 [1] (average of all runs (Table 4)) and on TLR2 [3] were 0.0001 to 0.05 µM and 0.051 to 0.35 µM, respectively.

On to `O=C(N[C@@H](CNC(=O)c1ccc(C(=O)N2C[C@@H](C(=O)N[C@H]3C[C@@H]3c3ccccc3)[C@H](C(=O)N[C@H]3C[C@@H]3c3ccccc3)C2)cc1)C(=O)N[C@H]1C[C@@H]1c1ccccc1)N[C@H]1C[C@@H]1c1ccccc1` [Compound 223, (3S,4S)-1-(4-(((S)-3-oxo-3-(((1S,2R)-2-phenylcyclopropyl)amino)-2-(3-((1S,2R)-2-phenylcyclopropyl)ureido)propyl)carbamoyl)benzoyl)-N3,N4-bis((1S,2R)-2-phenylcyclopropyl)pyrrolidine-3,4-dicarboxamide], for which the EC50 is greater than 1 µM on TLR2 [1] (average of all runs (Table 4)) and 0.351 to 1 µM at TLR2 [3].

`CO[C@H]1CN(C(=O)c2ccc(C(=O)N3C[C@@H](C(=O)N[C@H]4C[C@@H]4c4ccccc4)[C@H](C(=O)N[C@H]4C[C@@H]4c4ccccc4)C3)cc2)C[C@@H]1NC(=O)N[C@H]1C[C@@H]1c1ccccc1` [Compound 224, (3S,4S)-1-(4-((3S,4S)-3-methoxy-4-(3-((1S,2R)-2-phenylcyclopropyl)ureido)pyrrolidine-1-carbonyl)benzoyl)-N3,N4-bis((1S,2R)-2-phenylcyclopropyl)pyrrolidine-3,4-dicarboxamide]: the EC50 on TLR2 [1] (average of all runs (Table 4)) and on TLR2 [3] was greater than 1 µM throughout.

As for `CCCCCCCOC(=O)N[C@@H](CNC(=O)c1ccc(C(=O)N2C[C@@H](C(=O)N[C@H]3C[C@@H]3c3ccccc3)[C@H](C(=O)N[C@H]3C[C@@H]3c3ccccc3)C2)cc1)C(=O)NCCCCCC` [Compound 227, heptyl ((S)-3-(4-((3S,4S)-3,4-bis(((1S,2R)-2-phenylcyclopropyl)carbamoyl)pyrrolidine-1-carbonyl)benzamido)-1-(hexylamino)-1-oxopropan-2-yl)carbamate], the EC50 is 0.0001 to 0.05 µM on TLR2 [1] (average of all runs (Table 4)) and greater than 1 µM on TLR2 [3].

For `CCCCCCCCOC(=O)N[C@@H](CNC(=O)c1ccc(C(=O)N2C[C@@H](C(=O)N[C@H]3C[C@@H]3c3ccccc3)[C@H](C(=O)N[C@H]3C[C@@H]3c3ccccc3)C2)cc1)C(=O)NCCCCCC` [Compound 228, octyl ((S)-3-(4-((3S,4S)-3,4-bis(((1S,2R)-2-phenylcyclopropyl)carbamoyl)pyrrolidine-1-carbonyl)benzamido)-1-(hexylamino)-1-oxopropan-2-yl)carbamate], the concentration for a half-maximal effect (EC50) on TLR2 [1] (average of all runs (Table 4)) is 0.0001 to 0.05 µM; at TLR2 [3], greater than 1 µM.

Consider `CCCCCCCCCOC(=O)N[C@@H](CNC(=O)c1ccc(C(=O)N2C[C@@H](C(=O)N[C@H]3C[C@@H]3c3ccccc3)[C@H](C(=O)N[C@H]3C[C@@H]3c3ccccc3)C2)cc1)C(=O)NCCCCCC` [Compound 229, nonyl ((S)-3-(4-((3S,4S)-3,4-bis(((1S,2R)-2-phenylcyclopropyl)carbamoyl)pyrrolidine-1-carbonyl)benzamido)-1-(hexylamino)-1-oxopropan-2-yl)carbamate], for which the EC50 was 0.0001 to 0.05 µM on TLR2 [1] (average of all runs (Table 4)) and greater than 1 µM at TLR2 [3].
